Patent publication US8618300B2, “Indolizine inhibitors of leukotriene production” (Boehringer Ingelheim International GmbH, priority 2008, dated 2013)

Target: T1, recombinant human FLAP protein (Homo sapiens, UniProt P20292)
T1 construct: made in house; host or cells: Sf9 insect cells (100,000 x g membrane pellet)
T1 sequence (P20292 1-161): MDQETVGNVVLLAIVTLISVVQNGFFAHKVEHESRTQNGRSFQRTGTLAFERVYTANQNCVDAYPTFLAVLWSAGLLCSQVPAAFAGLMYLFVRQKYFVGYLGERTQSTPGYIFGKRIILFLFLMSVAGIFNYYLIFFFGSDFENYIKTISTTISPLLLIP
Assay: FLAP binding assay, Scintillation Proximity Assay, displacement of [125I]L-691,831
Settings: read-out: hFLAP binding IC50
Protocol: Compounds are assessed for the ability to bind to FLAP in a binding assay that measures compound-specific displacement of an iodinated (^1251) FLAP inhibitor via a Scintillation Proximity Assay format (adapted from S. Charleson et al., Mol. Pharmacol., 1992, 41, 873-879).
Cell pellets produced from sf9 insect cells expressing recombinant human FLAP protein are resuspended in buffer A [15 mM Tris-HCl (pH 7.5), 2 mM MgCl2, 0.3 mM EDTA, 1 mM PMSF]. The cells are lysed with a Dounce homogenizer and the material is centrifuged at 10,000×g for 10 minutes. The supernatant is then collected and centrifuged at 100,000×g for 60 minutes. To prepare membrane protein for an assay, an aliquot of the 100,000×g pellet is resuspended in 1 ml of buffer A, Dounce homogenized, and finally subjected to polytron mixing (30 seconds). Membrane protein (25 μl, 5 μg) is mixed with WGA SPA beads (Amersham) and stirred for 1 h. To an assay plate (Perkin Elmer FlexiPlate) is added 25 μl of test compound prepared in Binding buffer [100 mM Tris (pH 7.5), 140 mM NaCl, 5% glycerol, 2 mM EDTA, 0.5 mM TCEP, 0.05% Tween 20], 25 μl of [^125I]L-691,831 (an iodinated analog of MK-591, Charleson et al. Mol. Pharmacol., 41, 873-879, 1992) and finally 50 μl of the bead/protein mixture. (final concentrations: beads, 200 μg/well; protein, 5 μg/well; [^125I] probe, 0 08 nM/well (17 nCi/well). The plates are shaken for 2 h before reading on a Microbeta plate reader. Non-specific binding is determined by the addition of 10 μM cold L-691,831 compound.

SMILES | IC50 [µM]
Cc1nc(COc2ccc3c(C(=O)c4ccc(Cl)cc4)c(CC(C)(C)C(=O)O)c(C(=O)C(C)(C)C)n3c2)cs1 [3-{1-[(4-chlorophenyl)carbonyl]-3-(2,2-dimethylpropanoyl)-6-[(2-methyl-1,3-thiazol-4-yl)methoxy]indolizin-2-yl}-2,2-dimethylpropanoic acid] | 0.038
Cc1cccc(COc2ccc3c(C(=O)c4ccc(Cl)cc4)c(CC(C)(C)C(=O)O)c(C(=O)C(C)(C)C)n3c2)n1 [3-{1-[(4-chlorophenyl)carbonyl]-3-(2,2-dimethylpropanoyl)-6-[(6-methylpyridin-2-yl)methoxy]indolizin-2-yl}-2,2-dimethylpropanoic acid] | 0.008
Cc1nc(COc2ccn3c(C(=O)c4ccc(Cl)c(Cl)c4)c(CC(C)(C)C(=O)O)c(C(=O)C(C)(C)C)c3c2)cs1 [3-{3-[(3,4-dichlorophenyl)carbonyl]-1-(2,2-dimethylpropanoyl)-7-[(2-methyl-1,3-thiazol-4-yl)methoxy]indolizin-2-yl}-2,2-dimethylpropanoic acid] | 0.111
Cc1csc(COc2ccn3c(C(=O)c4ccc(Cl)c(Cl)c4)c(CC(C)(C)C(=O)O)c(C(=O)C(C)(C)C)c3c2)n1 [3-{3-[(3,4-dichlorophenyl)carbonyl]-1-(2,2-dimethylpropanoyl)-7-[(4-methyl-1,3-thiazol-2-yl)methoxy]indolizin-2-yl}-2,2-dimethylpropanoic acid] | 0.001
Cc1cccc(COc2ccn3c(C(=O)c4ccc(Cl)c(Cl)c4)c(CC(C)(C)C(=O)O)c(C(=O)C(C)(C)C)c3c2)n1 [3-{3-[(3,4-dichlorophenyl)carbonyl]-1-(2,2-dimethylpropanoyl)-7-[(6-methylpyridin-2-yl)methoxy]indolizin-2-yl}-2,2-dimethylpropanoic acid] | 0.001
Cc1nc(COc2ccn3c(C(=O)c4cc(Cl)cc(Cl)c4)c(CC(C)(C)C(=O)O)c(C(=O)C(C)(C)C)c3c2)cs1 [3-{3-[(3,5-dichlorophenyl)carbonyl]-1-(2,2-dimethylpropanoyl)-7-[(2-methyl-1,3-thiazol-4-yl)methoxy]indolizin-2-yl}-2,2-dimethylpropanoic acid] | 0.001
Cc1csc(COc2ccn3c(C(=O)c4cccc(Cl)c4)c(CC(C)(C)C(=O)O)c(C(=O)C(C)(C)C)c3c2)n1 [3-{3-[(3-chlorophenyl)carbonyl]-1-(2,2-dimethylpropanoyl)-7-[(4-methyl-1,3-thiazol-2-yl)methoxy]indolizin-2-yl}-2,2-dimethylpropanoic acid] | 0.001
CC(C)c1ccn2c(C(=O)N(C)c3ccc(Br)cc3)c(CC(C)(C)C(=O)O)c(C(=O)C(C)(C)C)c2c1 [3-{3-[(4-bromophenyl)(methyl)carbamoyl]-1-(2,2-dimethylpropanoyl)-7-(propan-2-yl)indolizin-2-yl}-2,2-dimethylpropanoic acid] | 0.156
CC(C)(C)C(=O)c1c(CC(C)(C)C(=O)O)c(C(=O)c2ccc(Br)cc2)n2ccc(OCc3ccccn3)cc12 [3-{3-[(4-bromophenyl)carbonyl]-1-(2,2-dimethylpropanoyl)-7-(pyridin-2-ylmethoxy)indolizin-2-yl}-2,2-dimethylpropanoic acid] | 0.099
Cc1nc(COc2ccn3c(C(=O)c4ccc(Cl)c(C)c4)c(CC(C)(C)C(=O)O)c(C(=O)C(C)(C)C)c3c2)cs1 [3-{3-[(4-chloro-3-methylphenyl)carbonyl]-1-(2,2-dimethylpropanoyl)-7-[(2-methyl-1,3-thiazol-4-yl)methoxy]indolizin-2-yl}-2,2-dimethylpropanoic acid] | 0.002
Cc1csc(COc2ccn3c(C(=O)c4ccc(Cl)c(C)c4)c(CC(C)(C)C(=O)O)c(C(=O)C(C)(C)C)c3c2)n1 [3-{3-[(4-chloro-3-methylphenyl)carbonyl]-1-(2,2-dimethylpropanoyl)-7-[(4-methyl-1,3-thiazol-2-yl)methoxy]indolizin-2-yl}-2,2-dimethylpropanoic acid] | 0.001
CC(C)(C)C(=O)c1c(CC(C)(C)C(=O)O)c(C(=O)c2ccc(Cl)cc2)n2ccc(OCc3nccs3)cc12 [3-{3-[(4-chlorophenyl)carbonyl]-1-(2,2-dimethylpropanoyl)-7-(1,3-thiazol-2-ylmethoxy)indolizin-2-yl}-2,2-dimethylpropanoic acid] | 0.025
CC(C)(C)C(=O)c1c(CC(C)(C)C(=O)O)c(C(=O)c2ccc(Cl)cc2)n2ccc(OCc3cscn3)cc12 [3-{3-[(4-chlorophenyl)carbonyl]-1-(2,2-dimethylpropanoyl)-7-(1,3-thiazol-4-ylmethoxy)indolizin-2-yl}-2,2-dimethylpropanoic acid] | 0.118
CC(C)(C)C(=O)c1c(CC(C)(C)C(=O)O)c(C(=O)c2ccc(Cl)cc2)n2ccc(OCc3ccccn3)cc12 [3-{3-[(4-chlorophenyl)carbonyl]-1-(2,2-dimethylpropanoyl)-7-(pyridin-2-ylmethoxy)indolizin-2-yl}-2,2-dimethylpropanoic acid] | 0.044
CC(C)(C)C(=O)c1c(CC(C)(C)C(=O)O)c(C(=O)c2ccc(Cl)cc2)n2ccc(OCc3ncccn3)cc12 [3-{3-[(4-chlorophenyl)carbonyl]-1-(2,2-dimethylpropanoyl)-7-(pyrimidin-2-ylmethoxy)indolizin-2-yl}-2,2-dimethylpropanoic acid] | 0.064
CC(C)(C)C(=O)c1c(CC(C)(C)C(=O)O)c(C(=O)c2ccc(Cl)cc2)n2ccc(OCc3ccc4ccccc4n3)cc12 [3-{3-[(4-chlorophenyl)carbonyl]-1-(2,2-dimethylpropanoyl)-7-(quinolin-2-ylmethoxy)indolizin-2-yl}-2,2-dimethylpropanoic acid] | 0.008
COc1nc(COc2ccn3c(C(=O)c4ccc(Cl)cc4)c(CC(C)(C)C(=O)O)c(C(=O)C(C)(C)C)c3c2)cs1 [3-{3-[(4-chlorophenyl)carbonyl]-1-(2,2-dimethylpropanoyl)-7-[(2-methoxy-1,3-thiazol-4-yl)methoxy]indolizin-2-yl}-2,2-dimethylpropanoic acid] | 0.069
Cc1nc(COc2ccn3c(C(=O)c4ccc(Cl)cc4)c(CC(C)(C)C(=O)O)c(C(=O)C(C)(C)C)c3c2)cs1 [3-{3-[(4-chlorophenyl)carbonyl]-1-(2,2-dimethylpropanoyl)-7-[(2-methyl-1,3-thiazol-4-yl)methoxy]indolizin-2-yl}-2,2-dimethylpropanoic acid] | 0.018
COc1c(C)cnc(COc2ccn3c(C(=O)c4ccc(Cl)cc4)c(CC(C)(C)C(=O)O)c(C(=O)C(C)(C)C)c3c2)c1C [3-{3-[(4-chlorophenyl)carbonyl]-1-(2,2-dimethylpropanoyl)-7-[(4-methoxy-3,5-dimethylpyridin-2-yl)methoxy]indolizin-2-yl}-2,2-dimethylpropanoic acid] | 0.058
COc1ccnc(COc2ccn3c(C(=O)c4ccc(Cl)cc4)c(CC(C)(C)C(=O)O)c(C(=O)C(C)(C)C)c3c2)c1 [3-{3-[(4-chlorophenyl)carbonyl]-1-(2,2-dimethylpropanoyl)-7-[(4-methoxypyridin-2-yl)methoxy]indolizin-2-yl}-2,2-dimethylpropanoic acid] | 0.008
COc1cccc(COc2ccn3c(C(=O)c4ccc(Cl)cc4)c(CC(C)(C)C(=O)O)c(C(=O)C(C)(C)C)c3c2)n1 [3-{3-[(4-chlorophenyl)carbonyl]-1-(2,2-dimethylpropanoyl)-7-[(6-methoxypyridin-2-yl)methoxy]indolizin-2-yl}-2,2-dimethylpropanoic acid] | 0.008
